Bridge positions count the residues as written; N and C are the ends. Ends that are not written are not given here. Peptide text beside a SMILES is read from it.
Legend:
[1] = target: endoproteinase Glu-C (Endo Glu-C) (Staphylococcus aureus, UniProt P0C1U8); settings: 24 h, pH 8
[2] = tested on: bovine adrenal chromaffin cells; format: cell-based
in vitro = settings: human, plasma

Sequence of endoproteinase Glu-C (Endo Glu-C) (P0C1U8 69-336 limits assumed): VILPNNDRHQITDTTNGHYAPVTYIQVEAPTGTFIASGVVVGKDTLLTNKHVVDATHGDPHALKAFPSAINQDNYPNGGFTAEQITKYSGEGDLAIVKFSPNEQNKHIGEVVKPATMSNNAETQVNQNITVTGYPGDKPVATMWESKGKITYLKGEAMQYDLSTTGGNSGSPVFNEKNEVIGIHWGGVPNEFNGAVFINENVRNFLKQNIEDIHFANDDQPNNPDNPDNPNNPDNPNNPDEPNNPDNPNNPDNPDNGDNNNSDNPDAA

## CC(C)C[C@@H]1NC(=O)[C@H](CC(N)=O)NC(=O)[C@H](CO)NC(=O)[C@H](Cc2c[nH]cn2)NC(=O)[C@H](CCC(=O)O)NC(=O)[C@H](CC(C)C)NC(=O)[C@H](Cc2c[nH]cn2)NC(=O)[C@@H]2CSSC[C@@H]3NC(=O)CNC(=O)CNC(=O)CNC(=O)[C@H](C)NC(=O)[C@H](C)NC(=O)CNC(=O)CNC(=O)[C@H](CSSC[C@H](NC3=O)C(=O)N[C@@H](CO)C(=O)N[C@@H](CC(N)=O)C(=O)N3CCC[C@H]3C(=O)N[C@@H](C(C)C)C(=O)N2)NC1=O [cMII-6] (cyclo(AAGGGCCSNPVCHLEHSNLCGG); disulfide 6-12, 7-20)
[1]
  intact peptide remaining with Endo Glu-C: remains entirely intact
[2]
  inhibition of nicotine-evoked catecholamine release, activity relative to linear MII: comparable to linear MII
In vitro
  remaining at 24 h: ~90%

## Gly Cys Cys Ser Asn Pro Val Cys His Leu Glu His Ser Asn Leu Cys Gly Gly Ala Ala Gly (GCCSNPVCHLEHSNLCGGAAG; also: cyclic, ring type and places not given here) [cMII-5, cyclic MII with five residue linker GGAAG]
[2]
  inhibition of nicotine-evoked catecholamine release, activity relative to linear MII: comparable to linear MII

## CC(C)C[C@@H]1NC(=O)[C@H](CC(N)=O)NC(=O)[C@H](CO)NC(=O)[C@H](Cc2c[nH]cn2)NC(=O)[C@H](CCC(=O)O)NC(=O)[C@H](CC(C)C)NC(=O)[C@H](Cc2c[nH]cn2)NC(=O)[C@@H]2CSSC[C@@H]3NC(=O)CNC(=O)CNC(=O)[C@H](C)NC(=O)[C@H](C)NC(=O)CNC(=O)[C@H](C)NC(=O)CNC(=O)CNC(=O)[C@H](CSSC[C@H](NC3=O)C(=O)N[C@@H](CO)C(=O)N[C@@H](CC(N)=O)C(=O)N3CCC[C@H]3C(=O)N[C@@H](C(C)C)C(=O)N2)NC1=O [cMII-7, Gly Cys Cys Ser Asn Pro Val Cys His Leu GIu His Ser Asn Leu Cys Gly Gly Ala Gly Ala Ala Gly] (cyclo(AAGGCCSNPVCHLEHSNLCGGAG); disulfide 5-11, 6-19)
[2]
  inhibition of nicotine-evoked catecholamine release, activity relative to linear MII: comparable to linear MII
In vitro
  remaining at 24 h: ~90%

Source: patent US20050256301A1 (The University of Queensland, priority 1998, published 2005)
